In US20100061945A1, “Use Of Quinoa Extract As Cosmetic And Pharmaceutic Slimming Agent And/Or As An Agent Preventing The Formation Of New Fats In The Human Body” (Societe D'Exploitation Des Produits Pour Les Indus tries …, priority 2006, published 2010):

Assays:
[1] = system: normal human adipocytes; assay: Lipolytic activity in isolated normal human adipocytes by assaying the free fatty acids; type: cell-based; conditions: incubation concentration 0.0001 weight % DE, two hours at 37° C.
[2] = system: murine preadipocytes (3T3-L1 line); assay: Differentiation of preadipocytes to adipocytes, G6PDH activity assay; type: cell-based; conditions: incubation concentration 0.0000001 weight % DE (1 ng/ml)
Method: 1—Principle of the Method • The method described consists in incubating the product in the presence of murine preadipocytes (3T3-L1 line) which, under the influence of an appropriate culture medium, differentiate into mature adipocytes capable of storing triglycerides. The differentiation is evaluated by an enzymatic assay of Glucose-6-phosphate dehydrogenase (G6PDH). This enzyme, which is located within the adipocytes, allows the conversion of Glucose-6-phosphate to Gluconate-6-phosphate in the presence of Nicotinamide Adenine Dinucleotide Phosphate (NAPD) and leads to the formation of Hydrogenated Nicotinamide Adenine Dinucleotide Phosphate (NAPDH) used for the neosynthesis of fatty acids. It is present in the mature adipocytes. The formation of NAPDH is monitored by absorption spectrophotometry at 340 nanometers.
2—Experimental Protocol • (i)—Cellular model: The test is carried out using murine preadipocytes (3T3-L1 cell line) cultured in a monolayer until confluence is obtained. […] The G6PDH activity of the cellular lyzates is measured by adding its substrate, D-glucose 6P (1 mmol) and its cofactor NADP (8 mmol). The kinetics of appearance of NAPDH is measured by spectrophotometry at 340 nm for 2 minutes. […]

Compound	Lipolytic activity (compared with the control = 100) [1]	Free fatty acid concentration ([1]; mean of five assays, control 16 ± 3) [µmol]	% inhibition (differentiation of the preadipocytes) [2] [%]	G6PDH ([2]; differentiated control 0.46 ± 0.03, undifferentiated control 0.03 ± 0.002) [U/ml]
Cn1c(=O)c2c(ncn2C)n(C)c1=O [Caffeine, 1,3,7-trimethyl-xanthine]	154	25 ± 4		
TNFα			43	0.005 ± 0.01
